Experiments:
[1] = system: EBV subset ME/CFS patients; assay: Energy Index Point Score (EIPS) of six EBV subset ME/CFS patients treated with valacyclovir for ≥12 months; format: in vivo, human; conditions: for EIPS final: valacyclovir ≥12 months
Method: As depicted in Table 1, the Energy Index (EI) point score (Copyright, Lerner A M and Deeter R G, 1999), is a simple and reliable metric that can be used to easily evaluate the functional capacity of the CFS patient at each patient-physician visit. The EI is measured on a scale of 1-10. Validation of the EI was done using two methods: 1.) 20 CFS patients and 22 healthy adults, matched for sex, age, place, and time; EI, CFS=3.6; EI, healthy adults=9.9, p=<0.0001; and 2.) 55 CFS patients evaluated at the same time by the EI and fatigue severity score, correlation 0.67, p=0.0066. Improvement to disappearance of CFS symptoms correlates with an increasing EI.
The validated energy index point score generally can be calculated for each CFS patient every 3 months at physician visits. A CFS patient has an EI≤5. A CFS patient with an […] is bedridden; a CFS diagnosis is no longer present at an EI>5. The EI effect size is 0.25, a medium effect size is 0.5. A large effect size is >0.8.
6 ME/CFS patients were identified as Group A EBV subset (five patients), and one patient (group B) had co-infection with Borrelia burgdorferi. […] A ME/CFS treatment decision tree that developed from the systematic review of the 142 ME/CFS patients is provided as FIG. 1.
Demographics. ME/CFS patients (Table 2) the six ME/CFS patients (5 women) were selected from 142 ME/CFS of the 2001-2007 systematic review. They were 37-59 years old. Serum samples were taken at intervals Mar. 5, 2002-Nov. 14, 2003. There were 7 to 10 sera from each patient. Five of the 6 ME/CFS patients were Group A (no co-infections), and one patient had co-infection with Borrelia burgdorferi (patient no. 2). Five of the 6 patients were HCMV IgG serum antibody negative. Initial EIPS values were 3.5-5.0, meaning that patients could be out of bed only 3 to 4 hours a day, and required daily naps in bed to complete each day. One ME/CFS patient was able to struggle to complete a sedentary working day (Table 2, patient no. 6). […] They struggled at baseline to maintain their sedentary working day, required a daytime nap, and could no longer do any exercise without marked syncope and worsening fatigue. One year later the final EIPS values were 7-8, for the 5 group A ME/CFS patients, meaning that patients could now live normal lives. The single group B ME/CFS patient's final EIPS value increased from a baseline of 3.5 to 5, but this […] still met international criteria diagnosis of ME/CFS. The EIPS is a validated (FSS-9 item scale with high degree of internal consistency measured by Cronbach's alpha) is a Functional Activity Appraisal: energy Index Score Healthcare worker Appraisal.

group A ME/CFS patients = assay: Follow-up of 106 group A ME/CFS patients 2001-2007 under subset directed antiviral treatment; format: in vivo, human; conditions: 79 of 106 group A patients, valacyclovir (EBV subset) or valganciclovir (HCMV, HHV6 subsets), 2001-2007, p<0.0001
From the text: A ME/CFS diagnostic panel was created utilizing initial Fukuda/Carruthers criteria and a systematic review of 142 ME/CFS patients. Two groups of ME/CFS patients were found. Group A patients had elevated serum IgG antibody titers to the herpes viruses Epstein-Barr virus (EBV), cytomegalovirus (HCMV) and Human Herpes virus 6 (HHV6) in single or multiple virus infection, but no other co-infections. Group B patients had similar elevated herpes virus antibody titers, plus serologic evidence of co-infections, tick-borne (“Borrelia burgdorferi”, “Anaplasma phagocytophilia”, “Babesia microti”); “Mycoplasma pneumoniae”; or adult rheumatoid fever. One hundred and six group A ME/CFS patients were followed from 2001-2007, and treated with subset directed valacyclovir EBV subset or valganciclovir (HCMV, HHV6 subsets). The data included over 7000 patient visits and 35,000 data entries.

[2] = system: early herpes virus proteins; conditions: cited from earlier work
EBV thymidine kinase = EBV thymidine kinase (Epstein-Barr virus, UniProt P03177); conditions: after gastrointestinal absorption; cited from earlier work
Chain of EBV thymidine kinase (P03177 whole entry): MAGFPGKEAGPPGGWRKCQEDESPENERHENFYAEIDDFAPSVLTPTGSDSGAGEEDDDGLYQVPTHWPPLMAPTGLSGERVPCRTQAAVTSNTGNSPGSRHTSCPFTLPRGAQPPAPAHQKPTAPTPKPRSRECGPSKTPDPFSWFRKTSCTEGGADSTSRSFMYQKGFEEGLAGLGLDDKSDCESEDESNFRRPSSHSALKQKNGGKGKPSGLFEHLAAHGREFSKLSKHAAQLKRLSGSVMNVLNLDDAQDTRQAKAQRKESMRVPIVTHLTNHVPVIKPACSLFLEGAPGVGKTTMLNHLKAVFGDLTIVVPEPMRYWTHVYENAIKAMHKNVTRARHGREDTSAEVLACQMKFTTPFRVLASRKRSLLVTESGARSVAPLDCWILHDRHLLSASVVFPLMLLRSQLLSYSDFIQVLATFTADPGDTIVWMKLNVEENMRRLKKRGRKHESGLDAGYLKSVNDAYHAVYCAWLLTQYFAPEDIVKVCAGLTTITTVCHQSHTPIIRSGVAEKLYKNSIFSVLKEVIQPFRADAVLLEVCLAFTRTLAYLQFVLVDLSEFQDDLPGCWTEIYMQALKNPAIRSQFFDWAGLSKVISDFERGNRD

HV6 DNA polymerases = HV6 DNA polymerases (Human herpesvirus 6A, UniProt P28857); conditions: cited from earlier work
Chain of HV6 DNA polymerases (P28857 whole entry): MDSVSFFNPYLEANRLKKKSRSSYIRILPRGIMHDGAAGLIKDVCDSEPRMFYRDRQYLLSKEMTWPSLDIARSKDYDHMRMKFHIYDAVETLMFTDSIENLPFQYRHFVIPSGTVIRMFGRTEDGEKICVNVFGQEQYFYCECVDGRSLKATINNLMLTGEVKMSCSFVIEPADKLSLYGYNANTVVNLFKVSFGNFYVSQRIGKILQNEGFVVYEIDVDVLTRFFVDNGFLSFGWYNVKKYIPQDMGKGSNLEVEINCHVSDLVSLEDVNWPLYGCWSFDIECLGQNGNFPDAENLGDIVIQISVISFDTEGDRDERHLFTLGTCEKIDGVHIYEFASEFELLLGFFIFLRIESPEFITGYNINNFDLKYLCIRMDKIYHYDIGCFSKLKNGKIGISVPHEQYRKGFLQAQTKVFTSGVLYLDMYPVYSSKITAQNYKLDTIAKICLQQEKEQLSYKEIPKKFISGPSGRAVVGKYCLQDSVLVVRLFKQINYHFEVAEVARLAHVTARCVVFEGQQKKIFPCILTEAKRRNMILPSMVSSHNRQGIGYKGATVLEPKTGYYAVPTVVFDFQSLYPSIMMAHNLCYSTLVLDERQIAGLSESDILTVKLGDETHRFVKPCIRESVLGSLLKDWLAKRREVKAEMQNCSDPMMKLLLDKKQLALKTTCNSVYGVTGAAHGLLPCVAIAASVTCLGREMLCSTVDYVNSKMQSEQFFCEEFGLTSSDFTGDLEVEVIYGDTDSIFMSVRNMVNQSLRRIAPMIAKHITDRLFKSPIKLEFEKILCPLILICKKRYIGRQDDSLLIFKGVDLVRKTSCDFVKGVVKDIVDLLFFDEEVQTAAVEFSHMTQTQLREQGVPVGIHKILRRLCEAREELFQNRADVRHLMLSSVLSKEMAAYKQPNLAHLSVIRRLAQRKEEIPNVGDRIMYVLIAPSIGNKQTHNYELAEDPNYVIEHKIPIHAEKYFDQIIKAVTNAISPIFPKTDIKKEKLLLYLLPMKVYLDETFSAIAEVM

HCMV DNA polymerases = HCMV DNA polymerases (Human cytomegalovirus, UniProt P08546); conditions: cited from earlier work
Chain of HCMV DNA polymerases (P08546 whole entry): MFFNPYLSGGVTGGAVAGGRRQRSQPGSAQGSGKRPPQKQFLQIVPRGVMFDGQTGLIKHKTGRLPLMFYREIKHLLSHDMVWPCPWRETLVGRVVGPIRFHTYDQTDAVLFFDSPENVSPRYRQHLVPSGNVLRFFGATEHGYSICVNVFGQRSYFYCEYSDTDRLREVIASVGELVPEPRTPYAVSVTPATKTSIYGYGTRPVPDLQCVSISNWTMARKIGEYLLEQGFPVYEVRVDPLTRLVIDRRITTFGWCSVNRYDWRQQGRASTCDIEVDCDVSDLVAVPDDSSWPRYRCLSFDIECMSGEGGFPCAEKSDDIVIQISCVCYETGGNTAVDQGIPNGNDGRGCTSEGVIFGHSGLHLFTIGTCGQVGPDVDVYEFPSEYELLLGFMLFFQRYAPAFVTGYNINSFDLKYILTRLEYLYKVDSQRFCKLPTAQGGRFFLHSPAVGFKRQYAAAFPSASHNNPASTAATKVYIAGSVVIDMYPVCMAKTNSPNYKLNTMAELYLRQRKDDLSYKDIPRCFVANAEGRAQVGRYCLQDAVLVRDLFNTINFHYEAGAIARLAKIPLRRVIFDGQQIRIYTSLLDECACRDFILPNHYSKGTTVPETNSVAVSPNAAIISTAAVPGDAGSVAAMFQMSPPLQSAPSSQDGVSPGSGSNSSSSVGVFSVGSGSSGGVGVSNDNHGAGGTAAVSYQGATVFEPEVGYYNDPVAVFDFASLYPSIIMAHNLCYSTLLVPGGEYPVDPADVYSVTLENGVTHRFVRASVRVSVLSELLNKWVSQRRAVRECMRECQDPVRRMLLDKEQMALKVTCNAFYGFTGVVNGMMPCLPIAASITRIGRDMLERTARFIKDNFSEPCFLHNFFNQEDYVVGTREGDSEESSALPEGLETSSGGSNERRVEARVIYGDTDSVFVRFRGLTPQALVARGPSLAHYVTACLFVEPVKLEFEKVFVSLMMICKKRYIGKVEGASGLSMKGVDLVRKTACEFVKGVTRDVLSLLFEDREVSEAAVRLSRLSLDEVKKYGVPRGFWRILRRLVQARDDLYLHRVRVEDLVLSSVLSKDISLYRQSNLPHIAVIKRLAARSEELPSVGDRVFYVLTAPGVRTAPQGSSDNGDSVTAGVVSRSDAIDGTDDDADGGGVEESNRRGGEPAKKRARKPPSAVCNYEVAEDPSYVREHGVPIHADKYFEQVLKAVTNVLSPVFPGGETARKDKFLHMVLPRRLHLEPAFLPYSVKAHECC

SMILES | EIPS final ([1]; patient 1, Group A, no co-infection, EIPS 5 baseline) | EIPS final ([1]; patient 2, Group B, co-infection Lyme disease, EIPS 3.5 baseline) | EIPS final ([1]; patient 3, Group A, no co-infection, EIPS 5 baseline) | EIPS final ([1]; patient 4, Group A, no co-infection, EIPS 4 baseline) | EIPS final ([1]; patient 6, Group A, no co-infections, EIPS 6 baseline) | final EIPS value ([1]; single group B ME/CFS patient, baseline 3.5, still met criteria of ME/CFS) | final EIPS values ([1]; the 5 group A ME/CFS patients, one year later, initial EIPS 3.5-5.0 (one patient 6)) | group A patients recovered to resume normal life (group A ME/CFS patients) [%] | inhibition of early herpes virus proteins [2] | greater affinity for EBV thymidine kinase than for the host cellular enzyme (EBV thymidine kinase) [×] | inhibition of HV6 DNA polymerases (HV6 DNA polymerases) | inhibition of HCMV DNA polymerases (HCMV DNA polymerases)
CC(C)[C@H](N)C(=O)OCCOCn1cnc2c(=O)[nH]c(N)nc21 [valacyclovir] | EIPS 8 | EIPS 5 | EIPS 8 | EIPS 7 | EIPS 7 | 5 | 7-8 | 74.5 | do not inhibit | 200 | – | –
CC(C)[C@H](N)C(=O)OCC(CO)OCn1cnc2c(=O)nc(N)[nH]c21 (some centres unmarked) [valganciclovir] | – | – | – | – | – | – | – | 74.5 | do not inhibit | – | inhibits | inhibits

From patent US10215755B2, “Method of diagnosing and treating Epstein Barr virus-based myalgic encephalomyelitis chronic fatigue syndrome patients” (CFS, LLC, priority 2012, dated 2019)
